# Measurements from ChEMBL document CHEMBL5052845 (2021).
# Columns and labels:
# Type in all cases: ADME, Microsome
# [1] = Clearance in human liver microsomes at 1 uM incubated for 60 mins followed by NADPH generating system addition and measured by LC-MS/MS analysis; conditions: read-out: CLH
# [2] = Clearance in mouse liver microsomes at 1 uM incubated for 60 mins followed by NADPH generating system addition and measured by LC-MS/MS analysis; conditions: read-out: CLH
# [3] = Half-life in human liver microsomes at 1 uM incubated for 60 mins followed by NADPH generating system addition and measured by LC-MS/MS analysis
# [4] = Half-life in mouse liver microsomes at 1 uM incubated for 60 mins followed by NADPH generating system addition and measured by LC-MS/MS analysis
# [5] = Metabolic stability in mouse liver microsomes at 1 uM assessed as compound remaining incubated for 60 mins followed by NADPH generating system addition and measured by LC-MS/MS analysis; conditions: read-out: Stability
microsomal CLint at 1 µM [1],microsomal CLint at 1 µM [2],half-life at 1 µM [3],half-life at 1 µM [4],"remaining at 1 h, 1 µM [5]",Compound
15.3 µL/min/mg,12.1 µL/min/mg,90.7 min,114 min,–,CCC[C@H]1C[C@@H](NC(=O)c2ccc(C(F)(F)F)[nH]c2=O)c2cc(C)ccc2N1
35.4 µL/min/mg,41.2 µL/min/mg,39.1 min,33.6 min,–,CCC[C@H]1Oc2ccc(C)cc2[C@@H]1NC(=O)c1ccc(C(F)(F)F)[nH]c1=O
17 µL/min/mg,19.2 µL/min/mg,82 min,72.3 min,–,CCC[C@@H]1C[C@@H](NC(=O)c2ccc(C(F)(F)F)[nH]c2=O)c2cc(C)ccc2N1
–,–,–,–,105%,Cc1ccc2c(c1)[C@H](O)CC[C@H]2NC(=O)c1ccc(C(F)(F)F)[nH]c1=O
